# In patent publication US20040081626A1, “Inhalation particles” (priority 1999, published 2004):
# Experiments:
# Type in all cases: physicochemical
# [1] = Particle crystallinity and polymorphism analysis by X-ray powder diffraction; conditions: for FWHMav: broadening of diffraction maxima positioned at 11.3° and 18.4°
# Protocol: Crystallinity and polymorphism of the sample was studied by X-ray powder diffraction (Diffractometer D500, Siemens GmbH, Karlsruhe, Germany). A copper target X-ray (wavelength 0.1541 nm) tube was operated with the power of 40 kV×40 mA. For x-ray powder diffraction analysis, 10 mg of the sample was mounted to a specific cylindrical single crystal mini sample stage, which has a diameter of 10 mm and height of approximately 1 mm. […] The patterns obtained were identical. There were not significant differences in peak positions and additional peaks were not observed. […] The relative degree crystallinity of the powder was also determined based on the x-ray powder diffraction patterns. It is noticed that the powder was well crystallised. The maximum intensities were sharp and well above background intensities. The estimation was based on the broadening of the diffraction maxima (FWHM-values) positioned at 11.3° and 18.4°. It is seen that the relative degree of crystallinity of the powder is 21% higher than that of the reference powder.
# [2] = Particle shape and surface structure by FE-SEM; conditions: 2 kV
# Description: Referring now to FIG. 1c, individual particles were collected on the surface of a holey carbon film TEM grid (14) connected to a vacuum (15) after particle collection. The morphology of the particles were then imaged using a field emission low voltage scanning electron microscope (FE-SEM) operated at 2 kV acceleration voltage. FIGS. 4a to 4d are scanning electron microscope images of the powder (magnification ×20000 in FIGS. 4b, 4c, 4d and ×23000 in FIG. 4a).
# [3] = Particle size analysis by electrical low pressure impactor (ELPI), measured gravimetrically; conditions: mass size distribution, dilution ratio 1:10
# Protocol: Referring now to FIG. 1b, the particle size distribution was measured by an electrical low pressure impactor (12) (ELPI) connected to a vacuum (13). The particles exiting the tubular tube were passed into a diluter (10), with a dilution ratio of 1:10, before entering the ELPI. Exhaust gas exit (11) was arranged in the diluter. To minimize temperature gradient, and thus to reduce the moisture condensation, the diluter, the line to the diluter and the gas line into the diluter were layered with heating elements, which were kept at a temperature higher than that of the solution dew point. […] It is shown that a narrow size distribution within the range of aerodynamic particle size of interest, i.e. at around 1-5 μm, was obtained.
FWHMav [1],polymorphism ([1]; diffraction pattern compared to reference beclomethasone dipropionate powder),particle diameter [2],particle shape and surface structure [2],aerodynamic particle size distribution [3],Compound
0.26 °,polymorphic crystal form class I,2-3 μm,spherical with rough surfaces,1-5 μm,CCC(=O)OCC(=O)[C@@]1(OC(=O)CC)[C@@H](C)C[C@H]2[C@@H]3CCC4=CC(=O)C=C[C@]4(C)[C@@]3(Cl)[C@@H](O)C[C@@]21C [Obtained beclomethasone dipropionate powder]
0.33 °,–,–,–,–,"CCC(=O)OCC(=O)[C@@]1(OC(=O)CC)[C@@H](C)C[C@H]2[C@@H]3CCC4=CC(=O)C=C[C@]4(C)[C@@]3(Cl)[C@@H](O)C[C@@]21C [Reference powder, beclomethasone dipropionate, reference compound]"
